Measured values taken from patent publication US9566254B2, “Inhibitors and methods of inhibiting bacterial and viral pathogens” (priority 2010, dated 2017).
Counter-ions that a name gives are not always drawn.

Columns and labels:
Test in all cases: microbe, parasite or virus in culture
Format in all cases: cell-based
[1] = system: vaccinia virus; conditions: Orthopoxvirus vaccinia, read-out: Avg Activity (VV)
[2] = system: La Crosse virus (LACV); conditions: La Crosse virus, Vero, read-out: Avg Activity (LACV)
[3] = system: Chlamydophila caviae; conditions: Chlamydia caviae, Vero, read-out: Avg Activity (C. Caviae)

Row | Compound | EC50 [1] [nM] | EC50 [2] [nM] | EC50 [3] [nM]
1 | Cc1ccc(C(=O)NC(=S)Nc2ccc(NC(=O)c3ccc(C(C)(C)C)cc3)cc2)cc1 [Compound 41, N-[[4-[(4-tert-butylbenzoyl)amino]phenyl]carbamothioyl]-4-methyl-benzamide] | < 1000 | < 1000 | < 1000
2 | COc1ccccc1NC(=S)NC(=O)c1ccc(C(C)(C)C)cc1 [Compound 51, 4-tert-butyl-N-[(2-methoxyphenyl)-carbamothioyl]benzamide] | 1000 to 10000 | 1000 to 10000 | < 1000
3 | CCS/C(=N\C(=O)c1ccc(C(C)(C)C)cc1)Nc1ccccc1Cl [Compound 14, (NZ)-4-tert-butyl-N-[(2-chloroanilino)-ethylsulfanyl-methylene]benzamide] | 1000 to 10000 | < 1000 | < 1000
4 | Cc1ccccc1NC(=S)NC(=O)c1ccc(C(C)(C)C)cc1 [Compound 42, 4-tert-butyl-N-(o-tolylcarbamothioyl)-benzamide] | < 1000 | < 1000 | < 1000
5 | CC(C)(C)c1ccc(C(=O)NC(=S)Nc2ccc(N)cc2)cc1 [Compound 60, N-[(4-aminophenyl)-carbamothioyl]-4-tert-butyl-benzamide] | 1000 to 10000 | 1000 to 10000 | < 1000
6 | CC(C)(C)c1ccc(C(=O)NC(=S)Nc2cc(C(C)(C)C)ccc2O)cc1 [Compound 46, 4-tert-butyl-N-[(5-tert-butyl-2-hydroxy-phenyl)-carbamothioyl]benzamide] | < 1000 | 1000 to 10000 | < 1000
7 | CCC(=O)Nc1cccc(NC(=S)NC(=O)c2ccc(C(C)(C)C)cc2)c1 [Compound 62, 4-tert-butyl-N-[[3-(propanoylamino)phenyl]-carbamothioyl]benzamide] | 1000 to 10000 | 1000 to 10000 | 1000 to 10000
8 | COc1cc(NC(=S)NC(=O)c2ccc(C(C)(C)C)cc2)ccc1NC(=O)CCCCC1SCC2NC(=O)NC21 (centres unmarked) [Compound 25, 4-tert-butyl-N-[[3-methoxy-4-[5-(2-oxo-1,3,3a,4,6,6a-hexahydrothieno[3,4-d]imidazol-4-yl)-pentanoylamino]phenyl]-carbamothioyl]benzamide] | 1000 to 10000 | > 25000 | 1000 to 10000
9 | COc1cc(NC(=S)NC(=O)c2ccc(C(C)(C)C)cc2)ccc1NC(=O)c1ccc(CN)cc1 [Compound 12, hydrochloride] | < 1000 | > 25000 | < 1000
10 | Cc1cccc(Cl)c1NC(=S)NC(=O)c1ccc(C(C)(C)C)cc1 [Compound 13, 4-tert-butyl-N-[(2-chloro-6-methyl-phenyl)-carbamothioyl]benzamide] | 1000 to 10000 | < 1000 | < 1000
11 | CC(C)(C)c1ccc(C(=O)NC(=S)Nc2ccc(NC(=O)c3ccccc3)cc2)cc1 [Compound 43, N-[(4-benzamidophenyl)-carbamothioyl]-4-tert-butyl-benzamide] | < 1000 | < 1000 | < 1000
12 | CC(C)(C)c1ccc(C(=O)NC(=S)NC2CCCCC2)cc1 [Compound 64, 4-tert-butyl-N-(cyclohexyl-carbamothioyl)benzamide] | 1000 to 10000 | 1000 to 10000 | 1000 to 10000
13 | Cc1ccc(NC(=S)NC(=O)c2ccc(C(C)(C)C)cc2)cc1C [Compound 55, 4-tert-butyl-N-[(3,4-dimethylphenyl)-carbamothioyl]benzamide] | 1000 to 10000 | 1000 to 10000 | < 1000
14 | CC(C)(C)c1ccc(C(=O)NC(=S)Nc2cccc(Cl)c2)cc1 [Compound 52, 4-tert-butyl-N-[(3-chlorophenyl)-carbamothioyl]benzamide] | 1000 to 10000 | 1000 to 10000 | < 1000
15 | CC(C)(C)c1ccc(C(=O)NC(=S)Nc2ccc([N+](=O)[O-])cc2)cc1 [Compound 69, 4-tert-butyl-N-[(4-nitrophenyl)-carbamothioyl]benzamide] | 1000 to 10000 | > 25000 | > 25000
16 | Cc1cccc(NC(=S)NC(=O)c2ccc(C(C)(C)C)cc2)c1Cl [Compound 19, 4-tert-butyl-N-[(2-chloro-3-methyl-phenyl)-carbamothioyl]benzamide] | 1000 to 10000 | 1000 to 10000 | < 1000
17 | Cc1cccc(NC(=S)NC(=O)c2ccc(C(C)(C)C)cc2)c1C [Compound 54, 4-tert-butyl-N-[(2,3-dimethylphenyl)-carbamothioyl]benzamide] | 1000 to 10000 | 1000 to 10000 | < 1000
18 | CCNC(=S)Nc1ccc(NC(=O)c2ccccc2Cl)c(OC)c1 [Compound 33, 2-chloro-N-[4-(ethylcarbamo-thioylamino)-2-methoxy-phenyl]benzamide] | 10000 to 25000 | > 25000 | > 25000
19 | COC(=O)CC(=O)Nc1ccc(NC(=S)NC(=O)c2ccc(C(C)(C)C)cc2)cc1OC [Compound 35, methyl 3-[4-[(4-tert-butylbenzoyl)carbamo-thioylamino]-2-methoxy-anilino]-3-oxo-propanoate] | 10000 to 25000 | > 25000 | 1000 to 10000
20 | CCNC(=S)NC(=O)c1ccc(C(C)(C)C)cc1 [Compound 73, 4-tert-butyl-N-(ethylcarbamothioyl)-benzamide] | 10000 to 25000 | > 25000 | > 25000
21 | Cc1cc(C)cc(NC(=S)NC(=O)c2ccc(C(C)(C)C)cc2)c1 [Compound 65, 4-tert-butyl-N-[(3,5-dimethylphenyl)-carbamothioyl]benzamide] | 1000 to 10000 | 1000 to 10000 | 1000 to 10000
22 | CC(C)(C)c1ccc(C(=O)NC(=S)Nc2ccc(Nc3cccnc3)cc2)cc1 [Compound 36, 4-tert-butyl-N-[[4-(3-pyridylamino)phenyl]-carbamothioyl]benzamide hydrochloride] | 10000 to 25000 | > 25000 | < 1000
23 | COc1ccc(NC(=S)NC(=O)c2ccc(C(C)(C)C)cc2)cc1 [Compound 68, 4-tert-butyl-N-[(4-methoxyphenyl)-carbamothioyl]benzamide] | 1000 to 10000 | > 25000 | 1000 to 10000
24 | COc1cc(NC(=S)NC(=O)c2ccc(C(C)(C)C)cc2)ccc1NC(N)=O [Compound 37, 4-tert-butyl-N-[(3-methoxy-4-ureido-phenyl)carbamothioyl]-benzamide] | > 25000 | 1000 to 10000 | 
25 | CC(C)(C)c1ccc(C(=O)NC(=S)Nc2cc(OC(F)(F)F)ccc2Cl)cc1 [Compound 29, 4-tert-butyl-N-[[2-chloro-5-(trifluoromethoxy)phenyl]-carbamothioyl]benzamide] | 1000 to 10000 | > 25000 | 
26 | COc1cc(NC(=S)NC(=O)c2ccc(C(C)(C)C)cc2)ccc1NC(=O)c1ccncc1 [Compound 31, N-[4-[(4-tert-butylbenzoyl)-carbamothioylamino]-2-methoxy-phenyl]pyridine-4-carboxamide] | 1000 to 10000 |  | < 1000
27 | COc1cc(NC(=S)NC(=O)c2ccc(C(C)(C)C)cc2)ccc1NC(=O)c1cccnc1 [Compound 30, N-[4-[(4-tert-butylbenzoyl)-carbamothioylamino]-2-methoxy-phenyl]pyridine-3-carboxamide] | 1000 to 10000 |  | < 1000
